How the values were obtained:
kochia [1] = assay: Test A postemergence; assay type: in vivo, Kochia scoparia
From the text: (§1) Seeds of plant species selected from barnyardgrass (Echinochloa crus-galli), kochia (Kochia scoparia), ragweed (common ragweed, Ambrosia elatior), Italian ryegrass (Lolium multiflorum), large (Lg) crabgrass (Digitaria sanguinalis), giant foxtail (Setaria faberii), morningglory (Ipomoea spp.), pigweed (Amaranthus retroflexus), velvetleaf (Abutilon theophrasti), wheat (Triticum aestivum), and corn (Zea mays) were planted into a blend of loam soil and sand and treated preemergence with a directed soil spray using test chemicals formulated in a non-phytotoxic solvent mixture which included a surfactant.
(§2) At the same time, plants selected from these crop and weed species and also blackgrass (Alopecurus myosuroides), and galium (catchweed bedstraw, Galium aparine) were planted in pots containing the same blend of loam soil and sand and treated with postemergence applications of test chemicals formulated in the same manner. Plants ranged in height from 2 to 10 cm and were in the one- to two-leaf stage for the postemergence treatment. Treated plants and untreated controls were maintained in a greenhouse for approximately 10 days, after which time all treated plants were compared to untreated controls and visually evaluated for injury. Plant response ratings, summarized in Table A, are based on a 0 to 100 scale where 0 is no effect and 100 is complete control. A dash (-) response means no test result.

kochia [2] = assay: Test A preemergence; assay type: in vivo, Kochia scoparia; details: 0 to 100 scale, 0 no effect, 100 complete control, approx. 10 days
From the text: as §1, §2

ragweed [3] = assay: Test A preemergence; assay type: in vivo, Ambrosia elatior; details: 0 to 100 scale, 0 no effect, 100 complete control, approx. 10 days
From the text: as §1, §2

wheat [4] = assay: Test A postemergence; assay type: in vivo, Triticum aestivum
Method in brief: (§3)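 Scoring: eye-based comparison with untreated controls, 0 for no effect through 100 for complete control, at about day 10. Treatments: directed soil spray preemergence; foliar spray postemergence on 2–10 cm plants at the one- to two-leaf stage. Medium: loam soil with sand.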

Italian ryegrass [5] = assay: Test A postemergence; assay type: in vivo, Lolium multiflorum
From the text: as §1, §2

barnyardgrass [6] = assay: Test A postemergence; assay type: in vivo, Echinochloa crus-galli
Method in brief: as §3

barnyardgrass [7] = assay: Test A preemergence; assay type: in vivo, Echinochloa crus-galli
Method in brief: as §3

ragweed [8] = assay: Test A postemergence; assay type: in vivo, Ambrosia elatior
From the text: as §1, §2

giant foxtail [9] = assay: Test A postemergence; assay type: in vivo, Setaria faberii
Method in brief: as §3

pigweed [10] = assay: Test A preemergence; assay type: in vivo, Amaranthus retroflexus
Method in brief: as §3

galium = assay: Test A postemergence; assay type: in vivo, Galium aparine
From the text: as §1, §2

blackgrass = assay: Test A postemergence; assay type: in vivo, Alopecurus myosuroides; details: 0 to 100 scale, 0 no effect, 100 complete control
From the text: as §1, §2

giant foxtail [11] = assay: Test A preemergence; assay type: in vivo, Setaria faberii
Method in brief: as §3

corn [12] = assay: Test A postemergence; assay type: in vivo, Zea mays
Method in brief: as §3

Italian ryegrass [13] = assay: Test A preemergence; assay type: in vivo, Lolium multiflorum; details: 0 to 100 scale, 0 no effect, 100 complete control, approx. 10 days
From the text: as §1, §2

pigweed [14] = assay: Test A postemergence; assay type: in vivo, Amaranthus retroflexus
Method in brief: as §3

velvetleaf [15] = assay: Test A postemergence; assay type: in vivo, Abutilon theophrasti; details: 0 to 100 scale where 0 is no effect and 100 is complete control
Method in brief: as §3

large (Lg) crabgrass [16] = assay: Test A preemergence; assay type: in vivo, Digitaria sanguinalis
Method in brief: as §3

velvetleaf [17] = assay: Test A preemergence; assay type: in vivo, Abutilon theophrasti
Method in brief: as §3

sedge, umbrella = assay: Test B flooded paddy test; assay type: in vivo, Cyperus difformis; details: Flood, 250 g ai/ha; 0 to 100 scale where 0 is no effect and 100 is complete control
Method in brief: (§4)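 Seedlings are raised to two leaves, flooded to a depth of 3 cm and dosed by adding the compound to the floodwater. Water level is kept constant, and plants are scored visually versus controls 13–15 days later (0 = no effect, 100 = complete control).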

wheat [18] = assay: Test A preemergence; assay type: in vivo, Triticum aestivum
Method in brief: as §3

barnyardgrass [19] = assay: Test B flooded paddy test; assay type: in vivo, Echinochloa crus-galli; details: Flood, 250 g ai/ha; 0 to 100 scale where 0 is no effect and 100 is complete control
Method in brief: as §4

morningglory [20] = assay: Test A preemergence; assay type: in vivo, Ipomoea spp.
Method in brief: as §3

large (Lg) crabgrass [21] = assay: Test A postemergence; assay type: in vivo, Digitaria sanguinalis; details: 0 to 100 scale where 0 is no effect and 100 is complete control
Method in brief: as §3

morningglory [22] = assay: Test A postemergence; assay type: in vivo, Ipomoea spp.; details: 0 to 100 scale where 0 is no effect and 100 is complete control
Method in brief: as §3

Heteranthera limosa = assay: Test B flooded paddy test; assay type: in vivo; details: Flood, 250 g ai/ha; 0 to 100 scale where 0 is no effect and 100 is complete control
Method in brief: as §4

rice = assay: Test B flooded paddy test; assay type: in vivo, Oryza sativa; details: Flood, 250 g ai/ha; 0 to 100 scale where 0 is no effect and 100 is complete control
Method in brief: as §4

corn [23] = assay: Test A preemergence; assay type: in vivo, Zea mays
Method in brief: as §3

[24] = 500 g ai/ha, 0 to 100 scale where 0 is no effect and 100 is complete control
[25] = 500 g ai/ha, 0 to 100 scale, 0 no effect, 100 complete control
[26] = 500 g ai/ha, 0 to 100 scale, 0 no effect, 100 complete control, approx. 10 days
[27] = 1000 g ai/ha, 0 to 100 scale, 0 no effect, 100 complete control
[28] = 1000 g ai/ha, 0 to 100 scale, 0 no effect, 100 complete control, approx. 10 days
[29] = 125 g ai/ha, 0 to 100 scale where 0 is no effect and 100 is complete control

## Oc1cccc(Oc2ncc(Cl)cn2)c1-n1cc(Br)cn1 [Compound 68]
Kochia [1]; [24]
  Plant response rating, Kochia: 0
Kochia [2]; 500 g ai/ha
  Kochia plant response rating: 0
Ragweed [3]; 500 g ai/ha
  Ragweed plant response rating: 0
Wheat [4]; [24]
  Plant response rating, Wheat: 0
Italian ryegrass [5]; [24]
  Plant response rating, Ryegrass, Italian: 0
Barnyardgrass [6]; [25]
  Plant response rating, Barnyardgrass: 0
Barnyardgrass [7]; [26]
  Barnyardgrass plant response rating: 0
Ragweed [8]; [24]
  Plant response rating, Ragweed: 0
Giant foxtail [9]; [24]
  Plant response rating, Foxtail, Giant: 0
Pigweed [10]; [26]
  Pigweed plant response rating: 30
galium; [24]
  Plant response rating, Galium: 0
blackgrass; 500 g ai/ha
  Plant response rating, Blackgrass: 0
Giant foxtail [11]; [26]
  Foxtail, Giant plant response rating: 0
Corn [12]; [25]
  Plant response rating, Corn: 0
Italian ryegrass [13]; 500 g ai/ha
  Ryegrass, Italian plant response rating: 0
Pigweed [14]; [24]
  Plant response rating, Pigweed: 0

## CCOC(=O)c1cn(-c2ccccc2Oc2ncc(Cl)cn2)nn1 [Compound 302]
Kochia [1]; [27]
  Plant response rating, Kochia: 0
Kochia [2]; 1000 g ai/ha
  Kochia plant response rating: 0
Ragweed [3]; 1000 g ai/ha
  Ragweed plant response rating: 0
Wheat [4]; [27]
  Plant response rating, Wheat: 0
Italian ryegrass [5]; [27]
  Plant response rating, Ryegrass, Italian: 0
Barnyardgrass [6]; [27]
  Plant response rating, Barnyardgrass: 0
Barnyardgrass [7]; [28]
  Barnyardgrass plant response rating: 0
Ragweed [8]; [27]
  Plant response rating, Ragweed: 0
Giant foxtail [9]; [27]
  Plant response rating, Foxtail, Giant: 0
Pigweed [10]; [28]
  Pigweed plant response rating: 0
galium; [27]
  Plant response rating, Galium: 0
blackgrass; 1000 g ai/ha
  Plant response rating, Blackgrass: 0
Giant foxtail [11]; [28]
  Foxtail, Giant plant response rating: 0
Corn [12]; [27]
  Plant response rating, Corn: 0
Italian ryegrass [13]; 1000 g ai/ha
  Ryegrass, Italian plant response rating: 0
Pigweed [14]; [27]
  Plant response rating, Pigweed: 0

## CCN(C)C(=O)c1cccc(Oc2ncc(Cl)cn2)c1-n1cc(C(F)(F)F)cn1 [Compound 262]
Kochia [1]; [27]
  Plant response rating, Kochia: 30
Kochia [2]; 1000 g ai/ha
  Kochia plant response rating: 20
Ragweed [3]; 1000 g ai/ha
  Ragweed plant response rating: 0
Wheat [4]; [27]
  Plant response rating, Wheat: 0
Italian ryegrass [5]; [27]
  Plant response rating, Ryegrass, Italian: 0
Barnyardgrass [6]; [27]
  Plant response rating, Barnyardgrass: 10
Barnyardgrass [7]; [28]
  Barnyardgrass plant response rating: 0
Ragweed [8]; [27]
  Plant response rating, Ragweed: 10
Giant foxtail [9]; [27]
  Plant response rating, Foxtail, Giant: 10
Pigweed [10]; [28]
  Pigweed plant response rating: 10
galium; [27]
  Plant response rating, Galium: 10
blackgrass; 1000 g ai/ha
  Plant response rating, Blackgrass: 10
Giant foxtail [11]; [28]
  Foxtail, Giant plant response rating: 50
Corn [12]; [27]
  Plant response rating, Corn: 0
Italian ryegrass [13]; 1000 g ai/ha
  Ryegrass, Italian plant response rating: 0
Pigweed [14]; [27]
  Plant response rating, Pigweed: 50

## COc1cnc(Oc2cccc(C#N)c2-n2cc(Br)cn2)nc1 [Compound 218]
Velvetleaf [15]; 125 g ai/ha
  Velvetleaf plant response rating: 30
Velvetleaf [15]; 500 g ai/ha
  Plant response rating, Velvetleaf: 100
Wheat [4]; [29]
  Wheat plant response rating: 0
Wheat [4]; [24]
  Plant response rating, Wheat: 20
Large (Lg) crabgrass [16]; 125 g ai/ha
  Crabgrass, Large plant response rating (0 to 100 scale): 80
Large (Lg) crabgrass [16]; [24]
  Crabgrass, Large plant response rating: 100
Velvetleaf [17]; 125 g ai/ha
  Velvetleaf plant response rating (0 to 100 scale): 10
Velvetleaf [17]; [24]
  Velvetleaf plant response rating: 50
Barnyardgrass [6]; [29]
  Barnyardgrass plant response rating: 30
Barnyardgrass [6]; [24]
  Plant response rating, Barnyardgrass: 70
Barnyardgrass [7]; 125 g ai/ha
  Barnyardgrass plant response rating (0 to 100 scale, 0 is no effect, 100 is complete control): 10
Barnyardgrass [7]; [24]
  Barnyardgrass plant response rating: 70
Giant foxtail [9]; [29]
  Foxtail, Giant plant response rating: 20
Giant foxtail [9]; [24]
  Plant response rating, Foxtail, Giant: 70
sedge, umbrella
  Plant response rating, Sedge, Umbrella: 40
Pigweed [10]; 125 g ai/ha
  Pigweed plant response rating (0 to 100 scale): 100
Pigweed [10]; [24]
  Pigweed plant response rating: 100
Wheat [18]; 125 g ai/ha
  Wheat plant response rating (0 to 100 scale): 0
Wheat [18]; [24]
  Wheat plant response rating: 0
Barnyardgrass [19]
  Plant response rating, Barnyardgrass: 0
Morningglory [20]; 125 g ai/ha
  Morningglory plant response rating (0 to 100 scale): 0
Morningglory [20]; [24]
  Morningglory plant response rating: 10
Giant foxtail [11]; 125 g ai/ha
  Foxtail, Giant plant response rating (0 to 100 scale): 20
Giant foxtail [11]; [24]
  Foxtail, Giant plant response rating: 100
Large (Lg) crabgrass [21]; 125 g ai/ha
  Crabgrass, Large plant response rating: 50
Large (Lg) crabgrass [21]; 500 g ai/ha
  Plant response rating, Crabgrass, Large: 70
Corn [12]; [29]
  Corn plant response rating: 0
Corn [12]; [24]
  Plant response rating, Corn: 40
Morningglory [22]; 125 g ai/ha
  Morningglory plant response rating: 70
Morningglory [22]; 500 g ai/ha
  Plant response rating, Morningglory: 90
Heteranthera limosa
  Plant response rating, Ducksalad: 50
rice
  Plant response rating, Rice: 0
Pigweed [14]; [29]
  Pigweed plant response rating: 90
Pigweed [14]; [24]
  Plant response rating, Pigweed: 100
Corn [23]; 125 g ai/ha
  Corn plant response rating (0 to 100 scale): 0
Corn [23]; [24]
  Corn plant response rating: 0

From patent US9695155B2, “Herbicidal substituted pyrimidinyloxy benzene compounds” (E. I. DU PONT DE NEMOURS AND COMPANY, priority 2013, dated 2017)
